In patent US20250214960A1, “COMPOUNDS HAVING ACTIVITY OF DEGRADING GSPT1 AND APPLICATION THEREOF” (SHANGHAI MEIZER PHARMACEUTICALS CO., LTD., priority 2021, published 2025) one finds inhibition and IC50 data, which are given here for 17 molecules.

What all share (assay type): cell-based
One assay has as its target T1, GSPT1 protein (Homo sapiens, UniProt P15170+Q96SW2).
T1 construct: endogenous in cells; host or cells: Jeko-1
The experiment in a line: Western blot detection of degradation activity of GSPT1 protein in Jeko-1 cells. To be noted: JeKo-1, 24 h, read-out: GSPT1 degradation rate (%). As for the experimental part: Test Example 1: Western Blot Detection of Degradation Activity of GSPT1 Protein by the Compounds
Cell line: Jeko-1 cell line was cultured with an RPMI1640 media containing 20% fetal bovine serum in an incubator at 37° C., 5% CO2, and saturated humidity.
DMSO control group and test compound (concentration shown in the table below) were set up, after processing for 24 hours, the cells were collected, pre-cooled cell lysate was added and left on ice for 10 minutes. The total protein of the cells was extracted, and the protein concentration was measured and quantified using the BCA method. Routine gel preparation, sample loading, electrophoresis were conducted, then the membrane was transferred, and sealed, wherein the primary antibody was diluted with a blocking solution at 1:500-5000. The membrane was immersed in the diluted primary antibody and incubated overnight at 4° C. After rinsing, the secondary antibody was diluted with a sealing solution at 1:10000-20000, the membrane was immersed in the diluted secondary antibody, and incubated at room temperature for 45 minutes. After rinsing, the results were tested on ODYSSEY (Li-COR). GAPDH was used as an internal reference control.
Image J software was used to perform gray level analysis on each band and the degradation rate of GSPT1 protein by the compounds was calculated.
(In general: A western blot detects proteins with antibodies after separation by electrophoresis.)

The next assay has as its system Jeko-1 cells. The assay can be described thus: CCK8 method, inhibition of Jeko-1 cell proliferation. Conditions: Homo sapiens; Jeko-1, 72 hours; read-out: Cellular proliferation inhibition IC50. As for the experimental part: Test Example 3: CCK8 Method for Detecting Inhibition of Jeko-1 Cell Proliferation by Compound of Formula
Cell culture: The Jeko-1 cell line (human lymphoma cells) was cultured in RPMI-1640 complete medium containing […] and 1% penicillin streptomycin, and incubated in an incubator at 37° C., 5% CO2, and saturated humidity.
Cell laying: Jeko-1 cells in logarithmic growth phase was taken, centrifuged, and an appropriate amount of complete culture medium was added to obtain a single-cell suspension, a hemocytometer was used for cell counting, and a cell suspension of 1.5×10^5 cells/mL was prepared, the cells were inoculated into a 96 well culture plate at a rate of 100 μL cell suspension per well and incubated in a CO2 cell incubator for 24 hours.
CCK-8 detection: 72 hours after administration, 10% CCK-8 solution was added to each well, placed in a CO2 cell culture incubator, and incubated for 1-4 hours. The absorbance of each well was measured using a microplate reader at 450 nm.
Calculation of cellular proliferation inhibition rate:
Cellular proliferation inhibition rate (%)=[(Ac−As)/(Ac−Ab)]×100% • As: absorbance in experimental wells (including cells, culture medium, CCK-8 solution, and drug solution) • Ac: absorbance in control wells (including cells, culture medium, CCK-8 solution, without drugs) • Ab: absorbance in blank wells (including culture medium, CCK-8 solution, without cells or drugs)
(In general: Formazan colour is commonly taken as a measure of viable cells.)

In the next assay the test system is HL-60 cells. The assay can be described thus: CTG method, inhibition of HL-60 cell proliferation. To be noted: Homo sapiens; HL-60, 72 hours; read-out: Cellular proliferation inhibition IC50. As for the experimental part:
(§1) Test Example 2: CTG Method for Detecting the Inhibitory Effect of Compounds of Formula on the Proliferation of HNT 34 or HL-60 Cells
(§2) HNT-34 or HL-60 cells were taken and cultured in RPMI1640 medium containing 20% fetal bovine serum. The cells were inoculated on a 96 well plate, with 1×10^4 cells per well, and incubated at 37° C. in a […] incubator. After adding the test compound, it was incubated for 72 hours. Then an appropriate amount of CTG reagent was added, the luminescence value was measured, and the inhibition rate was calculated.

Another assay concerns HNT-34 cells. The experiment in a line: CTG method, inhibition of HNT-34 cell proliferation. Conditions: HNT-34, 72 hours; read-out: Cellular proliferation inhibition IC50. As for the experimental part: as §1, §2

Like-named read-outs stand apart in the source and are kept apart here.

T1 sequence (P15170 whole entry): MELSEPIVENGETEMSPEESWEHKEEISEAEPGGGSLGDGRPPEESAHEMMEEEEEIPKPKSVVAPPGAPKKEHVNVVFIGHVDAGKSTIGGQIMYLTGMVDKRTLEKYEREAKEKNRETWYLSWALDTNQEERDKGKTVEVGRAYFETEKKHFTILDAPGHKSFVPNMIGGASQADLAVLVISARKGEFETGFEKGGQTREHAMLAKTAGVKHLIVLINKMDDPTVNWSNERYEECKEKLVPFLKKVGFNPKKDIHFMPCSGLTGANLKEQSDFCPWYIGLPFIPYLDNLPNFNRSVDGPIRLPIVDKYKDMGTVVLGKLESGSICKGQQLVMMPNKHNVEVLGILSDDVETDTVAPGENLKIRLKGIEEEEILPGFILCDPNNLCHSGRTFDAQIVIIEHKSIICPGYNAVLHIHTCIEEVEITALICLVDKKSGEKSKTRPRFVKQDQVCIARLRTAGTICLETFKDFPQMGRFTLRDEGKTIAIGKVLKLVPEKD
T1 sequence (Q96SW2 whole entry): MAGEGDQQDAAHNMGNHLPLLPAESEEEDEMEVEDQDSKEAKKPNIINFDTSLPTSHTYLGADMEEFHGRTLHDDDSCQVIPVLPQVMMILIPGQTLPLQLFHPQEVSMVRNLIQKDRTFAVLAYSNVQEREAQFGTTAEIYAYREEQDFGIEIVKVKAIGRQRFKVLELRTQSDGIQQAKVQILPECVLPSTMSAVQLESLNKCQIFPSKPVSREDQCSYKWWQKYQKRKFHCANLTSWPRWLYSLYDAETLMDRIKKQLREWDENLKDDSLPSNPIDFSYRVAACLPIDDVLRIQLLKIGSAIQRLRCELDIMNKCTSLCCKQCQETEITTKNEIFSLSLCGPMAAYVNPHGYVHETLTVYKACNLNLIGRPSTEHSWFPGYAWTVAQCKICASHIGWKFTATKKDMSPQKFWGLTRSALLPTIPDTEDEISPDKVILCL
T1 sequence (Q16531 whole entry partner): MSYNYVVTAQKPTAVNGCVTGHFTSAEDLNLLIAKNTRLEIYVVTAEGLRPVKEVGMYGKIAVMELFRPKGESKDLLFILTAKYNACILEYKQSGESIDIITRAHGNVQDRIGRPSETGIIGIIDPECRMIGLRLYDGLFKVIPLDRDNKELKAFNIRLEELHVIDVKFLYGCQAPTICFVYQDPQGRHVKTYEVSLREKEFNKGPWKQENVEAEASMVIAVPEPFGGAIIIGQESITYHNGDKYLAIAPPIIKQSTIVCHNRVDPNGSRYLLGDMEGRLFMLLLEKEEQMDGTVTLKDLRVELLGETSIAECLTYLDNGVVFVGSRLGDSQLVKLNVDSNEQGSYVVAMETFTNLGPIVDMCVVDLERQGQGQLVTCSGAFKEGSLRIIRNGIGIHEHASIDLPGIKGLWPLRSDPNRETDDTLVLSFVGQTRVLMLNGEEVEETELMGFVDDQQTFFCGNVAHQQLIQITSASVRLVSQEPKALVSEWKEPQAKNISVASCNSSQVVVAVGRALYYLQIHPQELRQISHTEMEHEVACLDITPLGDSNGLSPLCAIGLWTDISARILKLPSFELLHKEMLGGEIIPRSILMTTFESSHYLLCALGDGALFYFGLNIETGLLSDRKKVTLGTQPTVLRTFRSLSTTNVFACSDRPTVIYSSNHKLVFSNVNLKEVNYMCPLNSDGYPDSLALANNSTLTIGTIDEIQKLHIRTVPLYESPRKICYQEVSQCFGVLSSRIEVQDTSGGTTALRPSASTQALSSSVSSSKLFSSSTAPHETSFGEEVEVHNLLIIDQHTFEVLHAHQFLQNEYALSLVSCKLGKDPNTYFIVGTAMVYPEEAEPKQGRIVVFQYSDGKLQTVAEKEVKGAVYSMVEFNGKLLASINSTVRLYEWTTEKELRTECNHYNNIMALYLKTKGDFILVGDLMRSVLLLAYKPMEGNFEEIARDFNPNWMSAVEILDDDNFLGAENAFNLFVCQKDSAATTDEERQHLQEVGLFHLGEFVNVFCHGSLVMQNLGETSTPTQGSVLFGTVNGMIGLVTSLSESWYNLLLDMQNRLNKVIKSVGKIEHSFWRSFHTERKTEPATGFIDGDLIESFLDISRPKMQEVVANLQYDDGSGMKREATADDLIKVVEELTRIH

In the case of `CC(C)(C)OC(=O)N[C@H](C(=O)NCc1ccc2c(c1)CN(C1CCC(=O)NC1=O)C2=O)c1ccccc1` (stereo partly drawn) [Compound 4-87, Tert butyl ((1S)-2-((2-(2,6-dioxopiperidin-3-yl)-1-oxoisoindolin-5-yl)methyl)amino)-2-oxo-1-phenylethyl) carbamate], the inhibition at 0.1 µM at GSPT1 protein (100 nM, Jeko-1 cells, 24 hours) stood at 89%. Moreover, the inhibition at 10 µM at GSPT1 protein (10 μM, Jeko-1 cells, 24 hours) was 93%. The IC50 with Jeko-1 cells was found to be 0.2 nM.
On to `O=C1CCC(N2Cc3cc(CNC(=O)[C@@H](NC(=O)OC4CCCC4)c4ccccc4)ccc3C2=O)C(=O)N1` (stereo partly drawn) [Compound 4-159, Cyclopentyl (1S)-2-((2-(2,6-dioxypiperidin-3-yl)-1-oxoisoindoline-5-yl)methyl)amino)-2-oxo-1-phenylethyl) carbamate], for which, at GSPT1 protein, the inhibition at 0.1 µM was 93% and the inhibition at 10 µM was found to be 99%. The IC50 in the assay on Jeko-1 cells was determined as 0.02 nM.
Consider `Cc1ccc([C@H](NC(=O)OC(C)(C)C)C(=O)NCc2ccc3c(c2)CN(C2CCC(=O)NC2=O)C3=O)cc1` (stereo partly drawn) [Compound 4-166, Tert butyl ((1S)-2-((2-(2,6-dioxypiperidin-3-yl)-1-oxoisoindoline-5-yl)methyl)amino)-2-oxo-1-(p-tolyl) ethyl) carbamate], for which the inhibition at 0.1 µM at GSPT1 protein (100 nM, Jeko-1 cells, 24 hours) was found to be 82%. Besides, the inhibition at 10 µM at GSPT1 protein (10 μM, Jeko-1 cells, 24 hours) stood at 93%. Also, the results for the IC50 in the assay on HL-60 cells and in the assay on HNT-34 cells were 12.8 nM and 11.3 nM, respectively.
For `CC(C)C1CC[C@H](C)C[C@@H]1OC(=O)N[C@H](C(=O)NCc1ccc2c(c1)CN(C1CCC(=O)NC1=O)C2=O)c1ccccc1` (stereo partly drawn) [Compound 4-175], at GSPT1 protein, the inhibition at 0.1 µM came to 93% and the inhibition at 10 µM is 90%. Also, in the assay on Jeko-1 cells, the IC50 stood at 0.03 nM.
In the case of `CC(C)(C)OC(=O)NC(C(=O)NCc1ccc2c(c1)CN(C1CCC(=O)NC1=O)C2=O)c1ccccc1Cl` (stereo not drawn) [Compound 4-200, Tert butyl (1-(2-chlorophenyl)-2-((2-(2,6-dioxypiperidin-3-yl)-1-oxoisoindoline-5-yl)methyl)amino)-2-oxoethyl) carbamate], the inhibition at 0.1 µM at GSPT1 protein (100 nM, Jeko-1 cells, 24 hours) worked out at 99%. Besides, on GSPT1 protein (10 μM, Jeko-1 cells, 24 hours), the inhibition at 10 µM is 100%. Besides, the results for the IC50 with HL-60 cells and in the assay on HNT-34 cells were 8.3 nM and 3.2 nM, respectively.
Consider `CC(C)(C)OC(=O)NC(C(=O)NCc1ccc2c(c1)CN(C1CCC(=O)NC1=O)C2=O)c1ccccc1F` (stereo not drawn) [Compound 5-5, Tert butyl (2-((2-(2,6-dioxypiperidin-3-yl)-1-oxoisoidoline-5-yl)methyl)amino)-1-(2-fluorophenyl)-2-oxoethyl) carbamate], for which, on GSPT1 protein (100 nM, Jeko-1 cells, 24 hours), the inhibition at 0.1 µM came to 100%. Moreover, the inhibition at 10 µM at GSPT1 protein (10 μM, Jeko-1 cells, 24 hours) was 100%. Also, in the assay with Jeko-1 cells, the IC50 was found to be 0.2 nM.
On to `CC(C)(C)OC(=O)N[C@H](C(=O)NCc1ccc2c(c1)CN(C1CCC(=O)NC1=O)C2=O)c1ccc(Br)cc1` (stereo partly drawn) [Compound 5-7, Tert butyl ((1S)-1-(4-bromophenyl)-2-((2-(2,6-dioxopyridin-3-yl)-1-oxoisoidoline-5-yl)methyl)amino)-2-oxoethyl) carbamate], for which, on GSPT1 protein (100 nM, Jeko-1 cells, 24 hours), the inhibition at 0.1 µM was 94%. In addition, the inhibition at 10 µM at GSPT1 protein (10 μM, Jeko-1 cells, 24 hours) was determined as 100%. The results for the IC50 in the assay with HL-60 cells and with HNT-34 cells were 12.4 nM and 8.7 nM, respectively.
In the case of `O=C1CCC(N2Cc3cc(CNC(=O)C(CNC(=O)Oc4ccccc4)c4ccccc4)ccc3C2=O)C(=O)N1` (stereo not drawn) [Compound 5-10, Phenyl (3-((2-(2,6-dioxypiperidin-3-yl)-1-oxoisoindolin-5-yl)methyl)amino)-3-oxo-2-phenylpropyl) carbamate], on GSPT1 protein, the inhibition at 0.1 µM was 73% and the inhibition at 10 µM came to 90%. For the same molecule, the IC50 in the assay on HL-60 cells worked out at 37.7 nM. The IC50 with HNT-34 cells came out at 36.9 nM.
As for `CN(C(=O)OC(C)(C)C)[C@@H](C(=O)NCc1ccc2c(c1)CN(C1CCC(=O)NC1=O)C2=O)c1ccccc1` (stereo partly drawn) [Compound 5-31, Tert butyl ((1R)-2-((2-(2,6-dioxypiperidin-3-yl)-1-oxoisoindoline-5-yl)methyl)amino)-2-oxo-1-phenylethy 1) (methyl) carbamate], the inhibition at 0.1 µM at GSPT1 protein (100 nM, Jeko-1 cells, 24 hours) came out at 84%. The inhibition at 10 µM on GSPT1 protein (10 μM, Jeko-1 cells, 24 hours) was determined as 99%. The IC50 with HL-60 cells turned out to be 12.5 nM; with HNT-34 cells, 6.6 nM.
The corresponding values for `CC(C)CC(CNC(=O)OC(C)(C)C)C(=O)NCc1ccc2c(c1)CN(C1CCC(=O)NC1=O)C2=O` (stereo not drawn) [Compound 5-33] are 52%, 80%, 35.4 nM and 32.7 nM.
For the molecule `CN(C(=O)OC1CCCC1)[C@H](C(=O)NCc1ccc2c(c1)CN(C1CCC(=O)NC1=O)C2=O)c1ccccc1` (stereo partly drawn) [Compound 5-36, Cyclopentyl ((1S)-2-((2-(2,6-dioxypiperidin-3-yl)-1-oxoisoindoline-5-yl)methyl)amino)-2-oxo-1-phenylethyl) (methyl) carbamate], on GSPT1 protein, the inhibition at 0.1 µM turned out to be 97% and the inhibition at 10 µM is 97%. Further, the IC50 in the assay on Jeko-1 cells was 1 nM.
`CN(C(=O)CC1CCCC1)[C@H](C(=O)NCc1ccc2c(c1)CN(C1CCC(=O)NC1=O)C2=O)c1ccccc1` (stereo partly drawn) [Compound 5-50]: the inhibition at 0.1 µM at GSPT1 protein (100 nM, Jeko-1 cells, 24 hours) came out at 94.9%. The inhibition at 10 µM on GSPT1 protein (10 μM, Jeko-1 cells, 24 hours) was 96.9%. Moreover, the IC50 in the assay on HL-60 cells was determined as 6.9 nM; in the assay on HNT-34 cells, 5.8 nM.
In the case of `CC(C)(C)OC(=O)N[C@H](C(=O)NCc1ccc2c(c1)CN(C1CCC(=O)NC1=O)C2=O)C1CCCCC1` (stereo partly drawn) [Compound 5-56, Tert butyl ((1S)-1-cyclohexyl-2-((2-(2,6-dioxopyridin-3-yl)-1-oxoisoidoline-5-yl)methyl)amino)-2-oxoethyl) carbamate], at GSPT1 protein (100 nM, Jeko-1 cells, 24 hours), the inhibition at 0.1 µM was 18.8%. On GSPT1 protein (10 μM, Jeko-1 cells, 24 hours), the inhibition at 10 µM was determined as 84.1%. Also, the IC50 amounted to 25.8 nM with HL-60 cells and 18 nM in the assay with HNT-34 cells.
The matching figures for `CC(C)(C)OC(=O)N[C@H](C(=O)NCc1ccc2c(c1)CN(C1CCC(=O)NC1=O)C2=O)C1CCCC1` (stereo partly drawn) [Compound 5-57, Tert butyl ((1S)-1-cyclopentyl-2-((2-(2,6-dioxopyridin-3-yl)-1-oxoisoidoline-5-yl)methyl)amino)-2-oxoethyl) carbamate]: 75%, 98.1%, 15 nM and 7.5 nM.
The corresponding values for `O=C1CCC(N2Cc3cc(CNC(=O)[C@H](CC4CCCCC4)NC(=O)CC4CCCC4)ccc3C2=O)C(=O)N1` (stereo partly drawn) [Compound 5-92, (2S)-3-cyclohexyl-2-(2-cyclopentylacetamido)-N-((2-(2,6-dioxypiperidin-3-yl)-1-oxoisoindoline-5-yl)methyl) propionamide] are 79%, 97%, 25.2 nM and 25.2 nM.
As for `CC(C)OC(=O)N[C@@H](CC1CCCCC1)C(=O)NCc1ccc2c(c1)CN(C1CCC(=O)NC1=O)C2=O` (stereo partly drawn) [Compound 5-94, Isopropyl ((2S)-3-cyclohexyl-1-((2-(2,6-dioxypiperidin-3-yl)-1-oxoisoindolin-5-yl)methyl)amino)-1-oxopropan-2-yl) carbamate], on GSPT1 protein, the inhibition at 0.1 µM was 85% and the inhibition at 10 µM turned out to be 95%. The IC50 in the assay on HL-60 cells was 12.8 nM. The IC50 in the assay with HNT-34 cells is 7.4 nM.
Take `CC[C@H](C)[C@@H](CC(=O)NCc1ccc2c(c1)CN(C1CCC(=O)NC1=O)C2=O)NC(=O)OC(C)(C)C` (stereo partly drawn) [Compound 5-97, Tert butyl ((3R,4S)-1-((2-(2,6-dioxypiperidin-3-yl)-1-oxoisoidoline-5-yl)methyl)amino)-4-methyl-1-oxohexane-3-yl) carbamate]: the inhibition at 0.1 µM at GSPT1 protein (100 nM, Jeko-1 cells, 24 hours) came out at 97%. For the same molecule, the inhibition at 10 µM on GSPT1 protein (10 μM, Jeko-1 cells, 24 hours) was 98%. In addition, the IC50 in the assay with HL-60 cells is 11 nM; in the assay on HNT-34 cells it was 6.9 nM.
